What follows are molecules tested against T1, human HDAC2 (Homo sapiens, UniProt Q92769) (assay: Human HDAC enzyme inhibitor Fluor-de-Lys assay, HDAC2). Conditions: 1.5 nM enzyme, 40 μM substrate BML-KI104, 3 h pre-incubation, 60 min reaction; read-out: HDAC2_IC50.
T1 construct: Full length human HDAC2-FLAG was expressed in baculovirus infected Sf9 cells; host or cells: baculovirus infected Sf9 cells
T1 sequence (Q92769 whole entry): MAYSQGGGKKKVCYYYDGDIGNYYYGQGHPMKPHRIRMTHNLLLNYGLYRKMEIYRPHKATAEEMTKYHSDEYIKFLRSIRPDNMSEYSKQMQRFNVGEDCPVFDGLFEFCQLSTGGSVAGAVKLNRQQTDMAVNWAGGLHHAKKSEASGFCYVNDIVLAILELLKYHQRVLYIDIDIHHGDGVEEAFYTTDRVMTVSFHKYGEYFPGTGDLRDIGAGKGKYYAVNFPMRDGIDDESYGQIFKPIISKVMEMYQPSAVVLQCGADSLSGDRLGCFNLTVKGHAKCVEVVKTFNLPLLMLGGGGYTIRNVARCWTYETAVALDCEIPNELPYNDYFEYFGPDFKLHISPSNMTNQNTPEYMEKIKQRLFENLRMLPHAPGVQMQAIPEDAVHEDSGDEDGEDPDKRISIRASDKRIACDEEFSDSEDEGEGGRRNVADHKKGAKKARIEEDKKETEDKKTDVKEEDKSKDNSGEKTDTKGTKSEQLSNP
Assay type: biochemical
From the text: Recombinant human HDAC8 (catalog number BML-SE145-0100) and HDAC10 (catalog number BML-SE559-0050) enzymes, HDAC substrates BML-KI104 and BML-KI178, and HDAC developer solutions BML-KI105 and BML-KI176 were purchased from Enzo Life Sciences (Farmingdale, NY). Recombinant human HDAC5 and HDAC11 were purchased from BPS Bioscience (San Diego, CA)(catalog numbers 50045 and 50021). Substrate Boc-Lys(TFA)-AMC was obtained from Bachem (Bupendorf, Switzerland) (catalog number 1-1985). HDAC inhibitor suberoylanilide hydroxamic acid (SAHA) was obtained from Indofine (Hillsborough Township, NJ) and trichostatin A (TSA) was obtained from Sigma-Aldrich (St. Louis, MO). […] HEPES pH 8.0 was obtained from Boston BioProducts (Ashland, MA), Tween-20 from Fisher Scientific (Hampton, NH)(catalog number BP337), TCEP from Calbiochem and 7.5% bovine serum albumin (BSA) from Life Technologies (Carlsbad, CA) (catalog number 15260037). 384-well, black assay plates were obtained from Corning (Corning, NY) (catalog number 3575).
Recombinant human HDAC1, HDAC2, and HDAC3/SMRT heterodimer were prepared by Merck Research Laboratories. […] The eluted protein was then passed over an anti-HDAC1 immunoaffinity column to remove any complexes containing HDAC1. […]
The histone deacetylase activities of HDAC1, HDAC2, HDAC3, HDAC6, and HDAC8 were measured in modified Fluor-de-Lys assays in 384-well format. In this assay, HDAC enzymes are initially incubated with an ε-acetyl (or -trifluoroacetyl)-L-lysine-containing substrate with a C-terminal amide having aminomethylcoumarin as the amine component. HDACs cleave the ε-acetyl group, rendering the resulting product susceptible to AMC cleavage by trypsin. The released AMC is then detected by its fluorescence.
The HDAC 1, 2 assays employed buffer A, which contained 20 mM HEPES, pH 8.0, 1 mM MgCl2, 137 mM NaCl, 2.7 mM KCl, 0.05% BSA. The HDAC3/SMRT assay employed buffer B, consisting of 20 mM HEPES, pH 8.0, 1 mM MgCl2, 50 mM NaCl, 2.7 mM KCl, 0.05% BSA, 0.005% Tween 20, and 10 μM IP4. The HDAC6 assay employed buffer C, consisting of 20 mM HEPES, pH 8.0, 1 mM MgCl2, 137 mM NaCl, 2.7 mM KCl, 0.5 mM TCEP (Calbiochem) and 0.05% BSA. The HDAC8 assay employed buffer D, consisting of 20 mM HEPES, pH 8.0, 1 mM MgCl2, 100 mM NaCl, 20 mM KCl, 0.1% n-octyl-β-D-glucoside (Anatrace, Maumee, OH) and 0.05% BSA. All steps were performed at room temperature (23° C.). The assay was performed by pre-incubating serial dilutions of test compounds with the target HDAC prior to initiation with substrate. Each compound was titrated in a 10-point dose response, using a 1:3 fold dilution scheme, with 0.15 ul of solution added by ECHO555 to the plate, followed by the addition of 20 μl of the appropriate HDAC isoform diluted in appropriate assay buffer. […] Final conditions used for each assay were: 1. HDAC 1, 0.3 nM total enzyme, 20 μM substrate BML-K1104; 2. HDAC 2, 1.5 nM total enzyme, 40 μM substrate BML-K1104; 3. HDAC 3/SMRT, 0.3 nM total enzyme, 20 μM substrate BML-K1104; 4. HDAC 6, 1.3 nM total enzyme, 2.5 μM substrate BML-K1104; 5. HDAC 8, 1.3 nM total enzyme, 200 μM substrate BML-K1178; the final high dose of test compound was 30 μM. […] The reactions were stopped and developed by addition of 30 ul of HDAC developer solution containing a saturating level of HDAC inhibitor as follows: 1.
COc1nc2ccccc2cc1-c1cnc([C@@H](N)COCCCC(=O)c2ncco2)[nH]1 [Compound 1, (R)-4-(2-amino-2-(5-(2-methoxyquinolin-3-yl)-1H-imidazol-2-yl)ethoxy)-1-(oxazol-2-yl)butan-1-one] was tested, and the IC50 was 1 µM. COc1nc2ccccc2cc1-c1cnc([C@H](COCCCC(=O)c2ncco2)NC(=O)C23CCN(CC2)CC3)[nH]1 [Compound 12, N-{(1R)-1-[5-(2-methoxyquinolin-3-yl)-1H-imidazol-2-yl]-2-[4-(1,3-oxazol-2-yl)-4-oxobutoxy]ethyl}-1-azabicyclo[2.2.2]octane-4-carboxamide] gave an IC50 of 0.0297 µM. Work on CN1CC(C(=O)N[C@@H](COCCCC(=O)c2ccon2)c2[nH]c(-c3ccc(F)cc3)nc2Cl)C1 [Compound 16, N-[(1R)-1-[4-chloro-2-(4-fluorophenyl)-1H-imidazol-5-yl]-2-(4-isoxazol-3-yl-4-oxobutoxy)ethyl]-1-methylazetidine-3-carboxamide] yielded an IC50 of 0.0567 µM. In the case of CCC(=O)CCCOC[C@H](NC(=O)C12CCN(CC1)CC2)c1ncc(-c2cc3ccccc3nc2OC)[nH]1 [Compound 6, N-{(1R)-1-[5-(2-methoxyquinolin-3-yl)-1H-imidazol-2-yl]-2-[(4-oxohexyl)oxy]ethyl}-1-azabicyclo[2.2.2]octane-4-carboxamide], the IC50 is reported as 0.925 µM. COc1nc2ccccc2cc1-c1cnc([C@H](COCCCC(=O)c2ccon2)NC(=O)CN(C)C)[nH]1 [Compound 14, N-{(1R)-2-(4-isoxazol-3-yl-4-oxobutoxy)-1-[5-(2-methoxyquinolin-3-yl)-1H-imidazol-2-yl]ethyl}-N~2~,N~2~- dimethylglycinamide] showed an IC50 of 0.0032 µM. Work on COc1nc2ccccc2cc1-c1cnc([C@H](COCCCC(=O)c2ncco2)NC(=O)c2cncs2)[nH]1 [Compound 10, N-{(1R)-1-[5-(2-methoxyquinolin-3-yl)-1H-imidazol-2-yl]-2-[4-(1,3-oxazol-2-yl)-4-oxobutoxy]ethyl}-1,3-thiazole-5-carboxamide] yielded an IC50 of 0.0259 µM. With COc1cc2nc(C)ccc2cc1-c1cnc([C@H](COCCCC(=O)c2cc(C)on2)NC(=O)[C@H]2CC23CCN(C)CC3)[nH]1 [Compound 20, (1S)-N-{(1R)-1-[5-(7-methoxy-2-methylquinolin-6-yl)-1H-imidazol-2-yl]-2-[4-(5-methylisoxazol-3-yl)-4-oxobutoxy]ethyl}-6-methyl-6-azaspiro[2.5]octane-1-carboxamide] the IC50 was 0.0038 µM. CNC(=O)C(=O)CCCOC[C@H](NC(=O)c1cncs1)c1ncc(-c2cc3ccccc3nc2OC)[nH]1 [Compound 8, N-[(1R)-1-[5-(2-methoxyquinolin-3-yl)-1H-imidazol-2-yl]-2-{[5-(methylamino)-4,5-dioxopentyl]oxy}ethyl]-1,3-thiazole-5-carboxamide] was tested, and the IC50 was 0.0025 µM. For COc1nc2ccccc2cc1-c1cnc([C@H](COCCCC(=O)c2ncco2)NC(=O)[C@H]2CC23CCN(C)CC3)[nH]1 [Compound 11, (1S)-N-{(1R)-1-[5-(2-methoxyquinolin-3-yl)-1H-imidazol-2-yl]-2-[4-(1,3-oxazol-2-yl)-4-oxobutoxy]ethyl}-6-methyl-6-azaspiro[2.5]octane-1-carboxamide], the IC50 was 0.0097 µM. CNC(=O)C(=O)CCCOC[C@H](NC(=O)C12CCN(CC1)CC2)c1ncc(-c2cc3ccccc3nc2OC)[nH]1 [Compound 9, N-[(1R)-1-[5-(2-methoxyquinolin-3-yl)-1H-imidazol-2-yl]-2-{[5-(methylamino)-4,5-dioxopentyl]oxy}ethyl]-1-azabicyclo[2.2.2]octane-4-carboxamide] showed an IC50 of 0.0015 µM. CN(C)CC(=O)N[C@@H](COCCCC(=O)c1ccon1)c1[nH]c(-c2ccc(F)cc2)nc1Cl [Compound 17, N-[(1R)-1-[4-chloro-2-(4-fluorophenyl)-1H-imidazol-5-yl]-2-(4-isoxazol-3-yl-4-oxobutoxy)ethyl]-N~2~,N~2~- dimethylglycinamide] gave an IC50 of 0.106 µM. In the case of COc1nc2ccccc2cc1-c1cnc([C@H](COCCCC(=O)c2ncco2)NC(=O)CN(C)C)[nH]1 [Compound 13, N-{(1R)-1-[5-(2-methoxyquinolin-3-yl)-1H-imidazol-2-yl]-2-[4-(1,3-oxazol-2-yl)-4-oxobutoxy]ethyl}-N~2~,N~2~- dimethylglycinamide], the IC50 is reported as 0.0144 µM. With COc1cc2nc(C)ccc2cc1-c1cnc([C@H](COCCCC(=O)c2cc(C)on2)NC(=O)C2CN(C)C2)[nH]1 [Compound 19, N-{(1R)-1-[5-(7-methoxy-2-methylquinolin-6-yl)-1H-imidazol-2-yl]-2-[4-(5-methylisoxazol-3-yl)-4-oxobutoxy]ethyl}-1-methylazetidine-3-carboxamide] the IC50 was 0.008 µM. CN1CC(C(=O)N[C@@H](COCCCC(=O)c2ccon2)c2ncc(-c3ccccc3F)[nH]2)C1 [Compound 15, N-[(1R)-1-[5-(2-fluorophenyl)-1H-imidazol-2-yl]-2-(4-isoxazol-3-yl-4-oxobutoxy)ethyl]-1-methylazetidine-3-carboxamide] showed an IC50 of 0.0313 µM. CCC(=O)CCCOC[C@H](NC(=O)c1cncs1)c1ncc(-c2cc3ccccc3nc2OC)[nH]1 [Compound 5, N-{(1R)-1-[5-(2-methoxyquinolin-3-yl)-1H-imidazol-2-yl]-2-[(4-oxohexyl)oxy]ethyl}-1,3-thiazole-5-carboxamide] was tested, and the IC50 was 1.16 µM. Cc1ccc2cc(-c3cnc([C@H](CSCCCC(=O)c4ncco4)NC(=O)[C@H]4CC45CCN(C)CC5)[nH]3)ccc2n1 [Compound 21, (1S)-6-methyl-N-[(1R)-1-[5-(2-methylquinolin-6-yl)-1H-imidazol-2-yl]-2-{[4-(1,3-oxazol-2-yl)-4-oxobutyl]sulfanyl}ethyl]-6-azaspiro[2.5]octane-1-carboxamide] showed an IC50 of 0.0029 µM. With CN1CCC2(CC1)C[C@@H]2C(=O)N[C@@H](COCCCC(=O)c1ccon1)c1[nH]c(-c2ccc(F)cc2)nc1Cl [Compound 18, (1S)-N-[(1R)-1-[4-chloro-2-(4-fluorophenyl)-1H-imidazol-5-yl]-2-(4-isoxazol-3-yl-4-oxobutoxy)ethyl]-6-methyl-6-azaspiro[2.5]octane-1-carboxamide] the IC50 was 0.0081 µM. Molecule N[C@@H](COCCCC(=O)c1ccon1)c1ncc(-c2ccccc2F)[nH]1 [Compound 2, (R)-4-(2-amino-2-(5-(2-fluorophenyl)-1H-imidazol-2-yl)ethoxy)-1-(isoxazol-3-yl)butan-1-one] has an IC50 of at least 0.9 µM.
